Patent publication US20230137092A1, “Composition and Method for the Treatment and Prevention of Cardiac, Pulmonary, Dermal, and Renal Fibrosis” (EMERALD HEALTH PHARMACEUTICALS INC., priority 2020, published 2023)

Tests used:
Assay type in all cases: in vivo, mouse
[1] = system: Ang II-induced aortic fibrosis; experiment: Ang II therapeutic model: aorta adventitial collagen, Sirius red; details: Ang II four weeks, 20 mg/kg oral last two weeks, ###p<0.001 versus Ang II group
Procedure: (§1) For the therapeutic model, infusion of Ang II for four weeks and the compound of Formula (VIII) (20 mg/kg) was administrated after two weeks of pump implantation. Subcutaneous infusion of Ang II using ALZET osmotic minipumps was used to study the preventive effects of the compound ALZET® osmotic minipumps (Model #2004, Charles Rives, Barcelona, Spain) delivering of Ang II (500 ng kg^−1 min^−1) (Sigma-Aldrich, Madrid, Spain) for four weeks. Compound treatment was daily administered in parallel, two weeks after the implantation of the subcutaneous pump, beneath the midscapular loose skin and consisted of daily oral gavage of compound of Formula (VIII) (20 mg/kg) or vehicle (Corn Oil/Maisine CC, 1/1). Mice were acclimated to manipulators for a week previously to the experiments in order to reduce stress and allow the detection of subtle changes in behavior by researchers. […] Neither piloerection nor hunched appearances were appreciated during the experimental procedures. Mice were sacrificed by cervical dislocation and the heart, aorta, kidney, and lung were removed and processed for histological examination or were frozen for further analysis.

[2] = system: Ang II-induced dermal fibrosis; experiment: Ang II-induced dermal fibrosis, preventive model, Sirius Red; details: Ang II 1.0 mg kg^- min^- two weeks, 20 mg/kg oral gavage
Procedure: The local renin angiotensin system exists in almost all organs, including skin. Ang II induces fibrosis in the skin via accumulation of activated fibroblasts. Dermal fibrosis was induced in mice by infusion of Ang II (1.0 mg kg^− min^−) for two weeks. The treatment with the compound of Formula (VIII) by oral gavage was the same as describe in Example 2. After two weeks of treatment, the mice were sacrificed under ether anesthesia. Skin samples were collected and fixed in 4% paraformaldehyde and embedded in paraffin. Skin sections (5 μm) were stained with Sirius Red for evaluation of fibrosis. Subcutaneous Ang II infusion induced a significant increase of collagen content and in the mice treated with compound, the induction of fibrosis in the skin is prevented (FIG. 11).

[3] = system: Ang II-induced cardiac fibrosis; experiment: Ang II-induced cardiac fibrosis, preventive model: collagen by Sirius red/fast green in left ventricle; details: vs Ang II group
Procedure: Ang II causes myocardial fibrosis in a short period of time (Sopel M et al., 2011, Lab. Invest., 91:565-578) characterized by collagen accumulation and after 14 days of Ang II infusion (Sigusch H H et al., 1996, Cardiovascular Research, 31:546-554). […] Subcutaneous infusion of Ang II using ALZET® osmotic pumps was used to study compound preventive effects. ALZET® osmotic minipumps (Model #2004, Charles Rives, Barcelona, Spain) delivering of Ang II (1.0 mg kg^− min^−) (Sigma-Aldrich, Madrid, Spain) for two weeks. Compound treatment was daily administered in parallel, one day before of the implantation of the subcutaneous pump, beneath the mid scapular loose skin and consisted of daily oral gavage of compound (20 mg/kg) or vehicle (Corn Oil/Maisine CC, 1/1). Mice were acclimated to manipulators for a week previously to the experiments in order to reduce stress and allow the detection of subtle changes in behavior by researchers. […]
Interstitial heart fibrosis was determined by the measurement of Sirius red/fast green staining (collagen content) (FIG. 1A). […]
Mice treated with Ang II presented an increase in the thickness of aortic media layer by collagen accumulation. […] Three-four random fields of each heart were photographed by standard brightfield microscopy and digitalized using a Leica DFC420c camera and analyzed using Fiji software (rsb.info.nih.gov/ij/).

[4] = system: Ang II-induced renal fibrosis; experiment: Ang II therapeutic model: renal fibrosis, Sirius red; details: Ang II four weeks, 20 mg/kg oral last two weeks, #p<0.05 versus Ang II group
Procedure: as §1

[5] = system: Ang II-induced cardiac inflammation and fibrosis; experiment: Immunohistochemistry of inflammatory and fibrotic markers (F4/80, TNC) in left ventricle, Ang II preventive model; details: 20 mg/kg oral, compared with Ang II untreated mice
Procedure: Macrophages accumulation are the hallmark of Ang II-induced fibrosis and play important roles during the inflammatory phase. Macrophage accumulation was identified by staining with a mAb that identifies F4/80^+ cells (FIG. 3). TNC is an ECM molecule that is expressed in response to injury in various tissues. Although not detectable in the normal adult heart, it was expressed under pathological conditions (FIG. 4).
Heart sections (Left ventricle) ([…]) were deparaffinized and boiled for 10 minutes in sodium citrate buffer (10 mM, pH 6.0) (Sigma-Aldrich, Madrid, Spain) for antigen retrieval. The sections were then incubated in a PBS washing buffer containing 0.1% Tween (Sigma-Aldrich, Madrid, Spain) three times for 10 minutes. The sections were incubated overnight at 4° C. with the following antibodies; for immunohistochemical detection of macrophages F4/80 antibody (1:50; MCA497, Bio-Rad) or with monoclonal anti-TNC (1:100 dilution, #MAB2138, RD system, Mineapolis, Minn., USA) were used for detection of this ECM protein. Slides were developed with diaminobenzidine chromogen (Agilent, Santa Clara, Calif., USA) and counterstained in Harris hematoxylin (Sigma-Aldrich, Madrid, Spain). Slides were photographed, digitalized using a Leica DFC420c camera and analyzed using Image J software.

C=C(C)C1CCC(C)=C[C@H]1C1=C(O)C(=O)C(CCCCC)=C(NCc2ccccc2)C1=O (stereo partly shown) [Formula (VIII)]
aorta collagen content in adventitial layer [1]: antifibrotic activity | induction of fibrosis in the skin (collagen content) [2]: prevented | collagen content accumulation on interstitial area of left ventricle ([3]; Ang II 1.0 mg kg^- min^- two weeks, 20 mg/kg daily oral gavage): significantly (p<0.001) reduced | perivascular collagen content (perivascular myocardial area) ([3]; Ang II two weeks, 20 mg/kg oral): significant reduction | renal fibrosis (collagen accumulation in kidney) [4]: reduced | TNC marker in left ventricle (immunostaining) [5]: significantly reduced | infiltration of F4/80+ macrophages in myocardial tissue [5]: significantly reduced
